Results as given in patent US11590244B2, “Methods for renal function determination” (MediBeacon Inc., priority 2017, dated 2023).
Like-named read-outs stand apart in the source and are kept apart here.

How the values were obtained:
[1] = Clinical pharmacokinetic study of MB-102 given intravenously: plasma and urine collection; assay type: in vivo, human; conditions: for half-life: plasma
Experimental: In a clinical study, 60 human patients were administered MB-102 ((2R,2′R)-2,2′-((3,6-diaminopyrazine-2,5-dicarbonyl)bis(azanediyl))bis(3-hydroxypropanoic acid)) prepared in Example 12) intravenously. Blood and urine were collected in addition to the methods and techniques disclosed herein. Standard pharmacokinetic data was collected and comparison was made between the methods and techniques disclosed herein to Omnipaque® (iohexol), a known contrast agent used for GFR determination.
Shown in FIGS. 3A to 3D are data collected from the 60 human patients tested with MB-102. Plasma pharmacokinetic data was collected and analyzed using methods known in the art and compared to the data measured using the methods and techniques disclosed herein.
FIGS. 3A to 3D illustrate a two compartment pharmacokinetic model for the elimination of MB-102. The model is consistent for patients regardless of their GFR values. FIG. 3A is for patients having normal kidney function having a measured GFR (mGFR) of 120 mL/min. FIG. 3B is for patients having a mGFR of 81 mL/min. FIG. 3C is for patients having a mGFR of 28 mL/min. FIG. 3D is for patients having a mGFR of 25 mL/min. The first compartment in the two compartment model is the vascular to tissue equilibrium while the second compartment illustrates renal excretion only. On average, the time for equilibration is about one hour, and is subject dependent.
As part of the clinical 1 study for MB-102, urine was collected from patients for 12 hours to determine the amount recovered and degree of secondary metabolism. […] For patients having normal, stage 1 and stage 2 renal function, 12 hour collection time was sufficient for greater than 99% recovery of MB-102. In view of the pharmacokinetic data and the plasma half-life determination, less than complete collection is readily understood for patients having more serious renal function impairment.
Shown in FIG. 6 is the plasma concentration half-life of MB-102 for patients having either normal kidney function, stage 1 renal impairment, stage 2 renal impairment, stage 3 renal impairment, or stage 4 renal impairment.

[2] = Stability testing, HPLC evaluation of stored samples; assay type: physicochemical; conditions: 25° C. and 60% relative humidity
Experimental: Samples of MB-102 were prepared and stored at 25° C. and 60% relative humidity for 24 months. HPLC evaluation of each sample was performed at various time points to assess the stability of the samples.

[3] = patients having a mGFR value below 60, 12 hours

time for equilibration (vascular to tissue equilibrium) ([1]; human patients, intravenous, on average, subject dependent): about one
half-life ([1]; human, intravenous, stage 2 and 3 groups (so in the source), read-out: average plasma half-life (converted)): 2.5 h
half-life ([1]; human, intravenous, stage 3 renal impairment, read-out: plasma half-life (converted)): 4 h
half-life ([1]; human, intravenous, stage 4 renal impairment, read-out: plasma half-life (converted)): 8 h
dose excreted ([1]; human, urine, intravenous, patients having normal, stage 1 and stage 2 renal function, 12 hour collection time, read-out: recovery from urine): > 99%
average plasma half-life ([1]; normal renal function group): two
degree of secondary metabolism (urine) [1, 3]: unmetabolized
recovery from urine [1, 3]: a lower percentage was recovered
recovered unmetabolized from urine ([1]; patients having an eGFR greater than 60, after 12 hours): greater than 99%
Purity (HPLC) ([2]; 0 months): >99%
Purity (HPLC) ([2]; 6 months): >99%
Purity (HPLC) ([2]; 12 months): 98.9%
Purity (HPLC) ([2]; 18 months): 98.3%
Purity (HPLC) ([2]; 24 months): 97.8%
SMILES: Nc1nc(C(=O)N[C@H](CO)C(=O)O)c(N)nc1C(=O)N[C@H](CO)C(=O)O [MB-102]
